According to patent publication US20240384350A1, “METHODS OF TREATING CANCER WITH KINASE INHIBITORS” (BOARD OF REGENTS, THE UNIVERSITY OF TEXAS SYSTEM, priority 2021, published 2024):

How the values were obtained:
Experiment in all cases: Ba/F3 drug screening, Cell Titer Glo, IC50 Mut/WT
Format in all cases: cell-based
[1] = target: T1, EGFR E709A G719S (Homo sapiens, UniProt P00533, E709A/G719S)
T1 construct: expressed in transfected cells; host or cells: Ba/F3
Description: (§1) Data represent the ratio of the IC50 value for a given TKI for cells with a PACC EGFR mutation to the IC50 value for cells with wildtype EGFR.
(§2) Ba/F3 cell generation, drug screening, and IC50 approximations. Ba/F3 cells were obtained as a gift from Dr. Gordon Mills (MD Anderson Cancer Center), and maintained in RPMI (Sigma) containing 10% FBS, 1% penicillin/streptomycin, and 10 ng/ml recombinant mIL-3 (R&D Biosystems). To establish stable Ba/F3 cell lines, Ba/F3 cells were transduced with retroviruses containing mutant EGFR plasmids for 12-24 hours.
(§3) After 48-72 hours of transduction, 2 μg/ml puromycin (Invitrogen) was added to Ba/F3 cell lines in complete RPMI. To select for EGFR positive cell lines, cells were stained with PE-EGFR (Biolegend) and sorted by FACS. After sorting, EGFR positive cells were maintained in RPMI containing 10% FBS, 1% penicillin/streptomycin, and 1 ng/ml EGF to support cell viability. Drug screening was performed as previously described^41,42. Shortly, cells were plated in 384-well plates (Greiner Bio-One) at 2000-3000 cells per well in technical triplicate. Seven different concentrations of TKIs or DMSO vehicle were added to reach a final volume of 40 μL per well. After 72 hours, 11 μL of Cell Titer Glo (Promega) was added to each well. Plates were incubated for a minimum of 10 minutes, and bioluminescence was determined using a FLUOstar OPTIMA plate reader (BMG LABTECH). Raw bioluminescence values were normalized to DMSO control treated cells, and values were plotted in GraphPad Prism. […] Drug screens were performed in technical triplicate on each plate and either duplicate or triplicate biological replicates.

[2] = target: T2, EGFR S720P (Homo sapiens, UniProt P00533, S720P); settings: Classical-Like, 72 hours
T2 construct: expressed in transfected cells; host or cells: Ba/F3 cells, retroviral pBabe-Puro vector (vector made by GeneScript from EGFR WT)

[3] = target: T3, EGFR L858R S784F (Homo sapiens, UniProt P00533, L858R/S784F); settings: Classical-Like, 72 hours
T3 construct: expressed in transfected cells; host or cells: Ba/F3 cells, retroviral pBabe-Puro vector (vector made by GeneScript from EGFR L858R)

[4] = target: T4, EGFR L858R T790M L792H (Homo sapiens, UniProt P00533, L792H/L858R/T790M); settings: T790M-like-3S, 72 hours
T4 construct: expressed in transfected cells; host or cells: Ba/F3

[5] = target: T5, EGFR H773insNPH (Homo sapiens, UniProt P00533, INS773NPH); settings: Ex20, 72 hours
T5 construct: expressed in transfected cells; host or cells: Ba/F3 cells, retroviral pBabe-Puro vector

[6] = target: T6, EGFR Ex19del T790M C797S (Homo sapiens, UniProt P00533, C797S/DEL746-750/T790M); settings: T790M-like-3R, 72 hours
T6 construct: expressed in transfected cells; host or cells: Ba/F3

[7] = target: T7, EGFR N771dupN G724S (Homo sapiens, UniProt P00533, DUP771-771/G724S); settings: Ex20, 72 hours
T7 construct: expressed in transfected cells; host or cells: Ba/F3 cells, retroviral pBabe-Puro vector (vector made by GeneScript from EGFR G724S, c.2313_2314insAAC)

[8] = target: T8, EGFR E709A (Homo sapiens, UniProt P00533, E709A)
T8 construct: expressed in transfected cells; host or cells: Ba/F3
Description: as §1, §2, §3

[9] = target: T9, EGFR D761N (Homo sapiens, UniProt P00533, D761N); settings: Classical-Like, 72 hours
T9 construct: expressed in transfected cells; host or cells: Ba/F3 cells, retroviral pBabe-Puro vector
Description: Data represent the ratio of the IC50 value for a given TKI for cells with a classical-like EGFR mutation to the IC50 value for cells with wildtype EGFR.
as §2
After 48-72 hours of transduction, 2 μg/ml puromycin (Invitrogen) was added to Ba/F3 cell lines in complete RPMI. To select for EGFR positive cell lines, cells were stained with PE-EGFR (Biolegend) and sorted by FACS. After sorting, EGFR positive cells were maintained in RPMI containing 10% FBS, 1% penicillin/streptomycin, and 1 ng/ml EGF to support cell viability. […] Shortly, cells were plated in 384-well plates (Greiner Bio-One) at 2000-3000 cells per well in technical triplicate. Seven different concentrations of TKIs or DMSO vehicle were added to reach a final volume of 40 μL per well. After 72 hours, 11 μL of Cell Titer Glo (Promega) was added to each well. Plates were incubated for a minimum of 10 minutes, and bioluminescence was determined using a FLUOstar OPTIMA plate reader (BMG LABTECH). Raw bioluminescence values were normalized to DMSO control treated cells, and values were plotted in GraphPad Prism. […] Drug screens were performed in technical triplicate on each plate and either duplicate or triplicate biological replicates.

[10] = target: T10, EGFR L858R L718Q (Homo sapiens, UniProt P00533, L718Q/L858R)
T10 construct: host or cells: Ba/F3

[11] = target: T11, EGFR Ex19del L718Q (Homo sapiens, UniProt P00533, DEL746-750/L718Q)
T11 construct: expressed in transfected cells; host or cells: Ba/F3

[12] = target: T12, EGFR L747_K754del insATSPE (Homo sapiens, UniProt P00533, DEL747-749/K754E); settings: T790M-like-3S, 72 hours
T12 construct: expressed in transfected cells; host or cells: Ba/F3 cells, retroviral pBabe-Puro vector

[13] = target: T13, EGFR G719S T790M (Homo sapiens, UniProt P00533, G719S/T790M); settings: T790M-like-3S, 72 hours
T13 construct: expressed in transfected cells; host or cells: Ba/F3

[14] = target: T14, EGFR S768dupSVD (Homo sapiens, UniProt P00533, DUP768-770); settings: Ex20, 72 hours
T14 construct: expressed in transfected cells; host or cells: Ba/F3 cells, retroviral pBabe-Puro vector

[15] = target: T15, EGFR A763insFQEA (Homo sapiens, UniProt P00533, INS763FQEA); settings: Classical-Like, 72 hours
T15 construct: expressed in transfected cells; host or cells: Ba/F3 cells, retroviral pBabe-Puro vector

[16] = target: T16, EGFR Ex19del G796S (Homo sapiens, UniProt P00533, DEL746-750/G796S)
T16 construct: expressed in transfected cells; host or cells: Ba/F3

[17] = target: T17, EGFR V774M (Homo sapiens, UniProt P00533, V774M)
T17 construct: host or cells: Ba/F3
Description: as §1, §2, §3

[18] = target: T18, EGFR E709K G719S (Homo sapiens, UniProt P00533, E709K/G719S)
T18 construct: expressed in transfected cells; host or cells: Ba/F3

[19] = target: T19, EGFR Ex19del/T790M/G724S (Homo sapiens, UniProt P00533, DEL746-750/G724S/T790M); settings: T790M-like-3S, 72 hours
T19 construct: expressed in transfected cells; host or cells: Ba/F3

[20] = target: T20, EGFR T790M (Homo sapiens, UniProt P00533, T790M); settings: T790M-like-3S, 72 hours
T20 construct: expressed in transfected cells; host or cells: Ba/F3

[21] = target: T21, EGFR Ex19del/T790M/L792H (Homo sapiens, UniProt P00533, DEL746-750/L792H/T790M); settings: T790M-like-3R, 72 hours
T21 construct: expressed in transfected cells; host or cells: Ba/F3

[22] = target: T22, EGFR N771dupN (Homo sapiens, UniProt P00533, DUP771-771); settings: Ex20, 72 hours
T22 construct: expressed in transfected cells; host or cells: Ba/F3 cells, retroviral pBabe-Puro vector
Description: Data represent the ratio of the IC50 value for a given TKI for cells with an ex20ins EGFR mutation to the IC50 value for cells with wildtype EGFR.
as §2
After 48-72 hours of transduction, 2 μg/ml puromycin (Invitrogen) was added to Ba/F3 cell lines in complete RPMI. To select for EGFR positive cell lines, cells were stained with PE-EGFR (Biolegend) and sorted by FACS. After sorting, EGFR positive cells were maintained in RPMI containing 10% FBS, 1% penicillin/streptomycin, and 1 ng/ml EGF to support cell viability. Drug screening was performed as previously described^41,42. Shortly, cells were plated in 384-well plates (Greiner Bio-One) at 2000-3000 cells per well in technical triplicate. Seven different concentrations of TKIs or DMSO vehicle were added to reach a final volume of 40 μL per well. After 72 hours, 11 μL of Cell Titer Glo (Promega) was added to each well. Plates were incubated for a minimum of 10 minutes, and bioluminescence was determined using a FLUOstar OPTIMA plate reader (BMG LABTECH). Raw bioluminescence values were normalized to DMSO control treated cells, and values were plotted in GraphPad Prism. […] Drug screens were performed in technical triplicate on each plate and either duplicate or triplicate biological replicates. […] Statistical differences between groups were determined by ANOVA as described in the figure legends.

[23] = target: T23, EGFR L833F (Homo sapiens, UniProt P00533, L833F); settings: Classical-Like, 72 hours
T23 construct: expressed in transfected cells; host or cells: Ba/F3 cells, retroviral pBabe-Puro vector

[24] = target: T24, EGFR Ex19del T790M (Homo sapiens, UniProt P00533, DEL746-750/T790M); settings: T790M-like-3S, 72 hours
T24 construct: expressed in transfected cells; host or cells: Ba/F3
Description: (§4) Data represent the ratio of the IC50 value for a given TKI for cells with a T790M-like-3S EGFR mutation to the IC50 value for cells with wildtype EGFR.
as §2, §3

[25] = target: T25, EGFR G719A T790M (Homo sapiens, UniProt P00533, G719A/T790M); settings: T790M-like-3S, 72 hours
T25 construct: expressed in transfected cells; host or cells: Ba/F3
Description: as §4, §2, §3

[26] = target: T26, EGFR Ex19del T790M L718V (Homo sapiens, UniProt P00533, DEL746-750/L718V/T790M); settings: T790M-like-3S, 72 hours
T26 construct: expressed in transfected cells; host or cells: Ba/F3
Description: as §4, §2, §3

[27] = target: T27, EGFR L858R/T790M/L718Q (Homo sapiens, UniProt P00533, L718Q/L858R/T790M); settings: T790M-like-3R, 72 hours
T27 construct: expressed in transfected cells; host or cells: Ba/F3
Description: Data represent the ratio of the IC50 value for a given TKI for cells with a T790M-like-3R EGFR mutation to the IC50 value for cells with wildtype EGFR.
as §2
After 48-72 hours of transduction, 2 μg/ml puromycin (Invitrogen) was added to Ba/F3 cell lines in complete RPMI. To select for EGFR positive cell lines, cells were stained with PE-EGFR (Biolegend) and sorted by FACS. After sorting, EGFR positive cells were maintained in RPMI containing 10% FBS, 1% penicillin/streptomycin, and 1 ng/ml EGF to support cell viability. […] Shortly, cells were plated in 384-well plates (Greiner Bio-One) at 2000-3000 cells per well in technical triplicate. Seven different concentrations of TKIs or DMSO vehicle were added to reach a final volume of 40 μL per well. After 72 hours, 11 μL of Cell Titer Glo (Promega) was added to each well. Plates were incubated for a minimum of 10 minutes, and bioluminescence was determined using a FLUOstar OPTIMA plate reader (BMG LABTECH). Raw bioluminescence values were normalized to DMSO control treated cells, and values were plotted in GraphPad Prism. […] Drug screens were performed in technical triplicate on each plate and either duplicate or triplicate biological replicates. […] Statistical differences between groups were determined by ANOVA as described in the figure legends.

SMILES	ratio of IC50 for cells with mutant EGFR to IC50 for cells with wildtype EGFR (Mut/WT) [2]	ratio of IC50 for cells with mutant EGFR to IC50 for cells with wildtype EGFR (Mut/WT) [3]	ratio of IC50 for cells with mutant EGFR to IC50 for cells with wildtype EGFR (Mut/WT) [4]	ratio of IC50 for cells with mutant EGFR to IC50 for cells with wildtype EGFR (Mut/WT) [5]	ratio of IC50 for cells with mutant EGFR to IC50 for cells with wildtype EGFR (Mut/WT) [6]	ratio of IC50 for cells with mutant EGFR to IC50 for cells with wildtype EGFR (Mut/WT) [7]	ratio of IC50 for cells with mutant EGFR to IC50 for cells with wildtype EGFR (Mut/WT) [9]	ratio of IC50 for cells with mutant EGFR to IC50 for cells with wildtype EGFR (Mut/WT) [13]	ratio of IC50 for cells with mutant EGFR to IC50 for cells with wildtype EGFR (Mut/WT) [14]	ratio of IC50 for cells with mutant EGFR to IC50 for cells with wildtype EGFR (Mut/WT) [15]	ratio of IC50 for cells with mutant EGFR to IC50 for cells with wildtype EGFR (Mut/WT) [19]	ratio of IC50 for cells with mutant EGFR to IC50 for cells with wildtype EGFR (Mut/WT) [20]	ratio of IC50 for cells with mutant EGFR to IC50 for cells with wildtype EGFR (Mut/WT) [21]	ratio of IC50 for cells with mutant EGFR to IC50 for cells with wildtype EGFR (Mut/WT) [22]	ratio of IC50 for cells with mutant EGFR to IC50 for cells with wildtype EGFR (Mut/WT) [23]	ratio of IC50 for cells with mutant EGFR to IC50 for cells with wildtype EGFR (Mut/WT) [24]	ratio of IC50 for cells with mutant EGFR to IC50 for cells with wildtype EGFR (Mut/WT) [25]	also measured
CNC(=O)CN1CCC(Oc2cc3c(Nc4cccc(Cl)c4F)ncnc3cc2OC)CC1 [Sapatinib]	0.004664	0.06664	54.78	1.265	17.13	1.103	0.001814	54.78	2.666	0.3137	26.15	70.5	451.7	1.24	0.006619	10.73	54.78	ratio of IC50 for cells with mutant EGFR to IC50 for cells with wildtype EGFR (Mut/WT) ([1]; PACC, E709A G719S, Ba/F3, 72 hours): 0.02227; ratio of IC50 for cells with mutant EGFR to IC50 for cells with wildtype EGFR (Mut/WT) ([8]; PACC, E709A, Ba/F3, 72 hours): 0.3243; ratio of IC50 for cells with mutant EGFR to IC50 for cells with wildtype EGFR (Mut/WT) ([10]; PACC, L858R L718Q, Ba/F3, 72 hours): 0.1961; ratio of IC50 for cells with mutant EGFR to IC50 for cells with wildtype EGFR (Mut/WT) ([11]; PACC, Ex19del L718Q, Ba/F3, 72 hours): 0.7162; ratio of IC50 for cells with mutant EGFR to IC50 for cells with wildtype EGFR (Mut/WT) [12]: 7.978; ratio of IC50 for cells with mutant EGFR to IC50 for cells with wildtype EGFR (Mut/WT) ([16]; PACC, Ex19del G796S, Ba/F3, 72 hours): 3.423; ratio of IC50 for cells with mutant EGFR to IC50 for cells with wildtype EGFR (Mut/WT) ([17]; PACC, V774M, Ba/F3, 72 hours): 0.05575; ratio of IC50 for cells with mutant EGFR to IC50 for cells with wildtype EGFR (Mut/WT) ([18]; PACC, E709K G719S, Ba/F3, 72 hours): 0.01102
C=CC(=O)Nc1cc(Nc2ncc(C(=O)OC(C)C)c(-c3cn(C)c4ccccc34)n2)c(OC)cc1N(C)CCN(C)C [TAK-788 (mobocertinib), mobocertinib]	0.111	0.001484	3.326	0.2952	117.8	1.553	0.363	1.302	0.2515	0.473	3.12	1.315	0.885	0.8508	1.233	0.2391	0.4864	ratio of the IC50 value for cells with a PACC EGFR mutation to the IC50 value for cells with wildtype EGFR ([1]; Ba/F3 cells, EGFR E709A G719S (PACC), Mut/WT): 1.298; ratio of the IC50 value for cells with a PACC EGFR mutation to the IC50 value for cells with wildtype EGFR ([8]; Ba/F3 cells, EGFR E709A (PACC), Mut/WT): 1.583; ratio of the IC50 value for cells with a PACC EGFR mutation to the IC50 value for cells with wildtype EGFR ([10]; Ba/F3 cells, EGFR L858R L718Q (PACC), Mut/WT): 2.996; ratio of the IC50 value for cells with a PACC EGFR mutation to the IC50 value for cells with wildtype EGFR ([11]; Ba/F3 cells, EGFR Ex19del L718Q (PACC), Mut/WT): 1.286; ratio of IC50 for cells with mutant EGFR to IC50 for cells with wildtype EGFR (Mut/WT) [26]: 3.032; ratio of the IC50 value for cells with a PACC EGFR mutation to the IC50 value for cells with wildtype EGFR ([16]; Ba/F3 cells, EGFR Ex19del G796S (PACC), Mut/WT): 32.48; ratio of the IC50 value for cells with a PACC EGFR mutation to the IC50 value for cells with wildtype EGFR ([17]; Ba/F3 cells, EGFR V774M (PACC), Mut/WT): 1.453; ratio of the IC50 value for cells with a PACC EGFR mutation to the IC50 value for cells with wildtype EGFR ([18]; Ba/F3 cells, EGFR E709K G719S (PACC), Mut/WT): 2.046; ratio of IC50 for cells with mutant EGFR to IC50 for cells with wildtype EGFR (Mut/WT) [27]: 149.2
